According to patent US20070203079A1, “Methods of using small molecule compounds for neuroprotection” (priority 2005, published 2007):
Structures can show the parent of a compound that is named as a salt.

Experiments:
Assay type in all cases: in vivo, C. elegans
[1] = tested on: worms containing Punc-54::Q82::GFP+Punc-54::torsinA+Punc54::torsinA (ΔE); experiment: Screen for reduction of polyglutamine protein aggregates in worms with wt and mutant torsinA; settings: differentiated by Q82::GFP lines without torsinA, with wt torsinA or with mutant torsinA
Method: C elegans nematodes were grown at 20° C. on NGM plates as described by Brenner (Brenner, Genetics, 1974, 77: 71-94). Several transgenic C. elegans lines were used for primary screens of the Prestwick small molecule library. A transgenic worm line expressing Punc-54::Q82-GFP; with both wild type (“wt”) (Punc=54: :torsinA) or mutant (Punc-54::torsinA(ΔE)). Torsin-A expresses a phenotype that results in visible protein aggregation under fluorescent microscope. Transgenic worms were plated on drug plates and progeny were studied for a return to soluble protein.
Drugs were administered to C. elegans according to a standard procedure (Rand and Johnson, Methods Cell Biol, 1995, 48: 187-204), by mixing the solubilized drug with the agar medium on which the worms are grown. This mode of administration allows the continuous exposure of worms to the drug.
Each drug was first dissolved in an appropriate solvent, followed by adding the drug solution into pre-autoclaved media, with the volume of drug solution already taken into account. […] Each plate was seeded with 100 μl concentrated E. coli OP50 bacteria.
The screening assays used to identify the compounds use protein aggregation readouts to determine the specificities of molecular action. […]
The methods for the aggregate analysis assay are described in Caldwell et al. (Hum Mol Genetics, 2003, 12(3): 307-319). […] MetaMorph Software (Universal Imaging Inc.) was used for pseudocoloration of images, image overlay, and aggregate size quantitation. For each worm line analyzed, average aggregate size was determined by capturing images of all aggregates in the posterior region of 30 L3-staged animals (for Q82::GFP aggregates) or all aggregates in 30 adult animals/day (for Q19::GFP analyses) at 1000× magnification. […]
To see the effect of the candidate compounds on suppressing protein misfolding and aggregation, five gravid adult worms were placed onto each drug plate and grown at 20° C. for approximately 3 days. Thirty Fl worms at L3 stage and young adult stage were counted for aggregate number.

[2] = tested on: Pdat-1::GFP+Pdat-1::torsinA worms (wt torsinA); experiment: 6-OHDA dopaminergic neurodegeneration in worms with wt torsinA
Method: (§1) C. elegans nematodes were grown at 25° C. on NGM plates as described by Brenner (Brenner, Genetics, 1974, 77: 71-94). Two transgenic C. elegans lines were used for primary screens of the Prestwick small molecule library. A transgenic worm line expressing Pdat-1::GFP; with both wild type (Pdat-1::torsinA) or mutant (Pdat-1:::torsinA(ΔE)). Torsin-A expresses a phenotype that results in visible neurodegeneration after treatment with 6-OHDA. Transgenic worms were plated on drug plates and progeny were studied for morphological changes in the 8 dopaminergic neurons present in C. elegans.
(§2) Drugs were administered to C. elegans according to a standard procedure (Rand and Johnson, Methods Cell Biol, 1995, 48: 187-204) by mixing the solubilized drug with the agar medium on which the worms are grown. […]
(§3) Age-synchronized worms were obtained by treating gravid adults with 2% sodium hypochlorite and 0.5M NaOH to isolate embryos (Lewis Fleming, 1995). […] The worms were then washed and spread onto NGM plates seeded with bacteria (OP50) and scored at time points ranging from 2 to 72 h after 6-OHDA exposure.
(§4) Immediately after 6-OHDA treatment, worms containing the transgenes were selected under a fluorescence dissecting microscope, based on the presence of GFP, and transferred to a fresh NGM plate seeded with OP50. […] For ease of analysis, only the four CEP DA neurons in the head of the worm were scored. […]

[3] = tested on: Pdat-1::GFP+Pdat-1::torsinA (ΔE) worms (mutant torsinA); experiment: 6-OHDA dopaminergic neurodegeneration in worms with mutant torsinA
Method: as §1, §2, §3, §4

[4] = tested on: Pdat-1::GFP+Pdat-1::α-synuclein+Pdat-1:: torsinA (ΔE) worms; experiment: α-synuclein toxicity assay, mutant torsinA
Procedure, shortened: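 C. elegans lines expressing GFP and α-synuclein in dopamine neurons, with wild-type or ΔE torsinA, exposed to compounds; readout is the share of worms keeping all 4 wild-type CEP dopamine neurons as 4-day adults.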

SMILES: C=N[C@@H](C(=O)N[C@@H]1C(=O)N2[C@@H]1SC(C)(C)[C@@H]2C(=O)O)c1ccccc1 [Compound 235, Metampicillin sodium salt]
- Specificity in worm assay [1]: wt torsinA
- neuroprotection against 6-OHDA insult ([2]; listed as Metampicillin, sodium salt): provides neuroprotection
- neuroprotection against 6-OHDA insult ([2]; listed as metampicillin sodium salt): only afforded in Pdat-1::GFP+Pdat-1::torsinA worms expressing wt torsinA
- neuroprotection against 6-OHDA insult [3]: not protected
- enhanced DA neuron survival [4]: no significant neuroprotection
